Assay results: the NIST ThermoML archive (doi:10.1021/je300175w)
Values joined by “and” are separate entries in the source; they are usually repeats but may differ in a detail not shown here. Equal entries are not always repeated. ± gives the expanded uncertainty stated by the source.

Assay: mn = molality of the nth substance listed, in mol/kg
Conditions: 101 kPa, Liquid; for mass density: Vibrating tube method; for speed of sound: Sing-around technique in a fixed-path interferometer

CC(C)(CO)CO [2,2-dimethyl-1,3-propanediol] + O
Conditions	mass density	speed of sound
273.15 K, m1 = 0.1001	1000.25 ± 0.033 kg/m3	–
273.15 K, m1 = 0.2006	1000.57 ± 0.034 kg/m3	–
273.15 K, m1 = 0.2997	1000.91 ± 0.035 kg/m3	–
273.15 K, m1 = 0.4021	1001.28 ± 0.035 kg/m3	–
273.15 K, m1 = 0.5001	1001.66 ± 0.036 kg/m3	–
273.15 K, m1 = 0.6007	1002.07 ± 0.036 kg/m3	–
278.15 K, m1 = 0.1001	–	1435.8 ± 0.72 m/s
278.15 K, m1 = 0.2006	–	1445.4 ± 0.73 m/s
278.15 K, m1 = 0.2997	–	1454.5 ± 0.73 m/s
278.15 K, m1 = 0.4021	–	1463.8 ± 0.74 m/s
278.15 K, m1 = 0.5001	–	1472.5 ± 0.74 m/s
278.15 K, m1 = 0.6007	–	1481.3 ± 0.75 m/s
283.15 K, m1 = 0.1001	999.968 ± 0.033 kg/m3 and 999.967 ± 0.033 kg/m3	1456.2 ± 0.73 m/s
283.15 K, m1 = 0.2006	1000.26 ± 0.034 kg/m3	1464.9 ± 0.74 m/s
283.15 K, m1 = 0.2997	1000.57 ± 0.034 kg/m3	1473.3 ± 0.74 m/s and 1473.4 ± 0.74 m/s
283.15 K, m1 = 0.4021	1000.92 ± 0.035 kg/m3	1481.9 ± 0.74 m/s
283.15 K, m1 = 0.5001	1001.26 ± 0.036 kg/m3	1489.9 ± 0.75 m/s
283.15 K, m1 = 0.6007	1001.63 ± 0.036 kg/m3 and 1001.64 ± 0.036 kg/m3	1497.9 ± 0.75 m/s and 1498 ± 0.75 m/s
288.15 K, m1 = 0.1001	999.35 ± 0.034 kg/m3 and 999.351 ± 0.034 kg/m3	1474.1 ± 0.74 m/s and 1474.2 ± 0.74 m/s
288.15 K, m1 = 0.2006	999.623 ± 0.034 kg/m3	1482.2 ± 0.74 m/s
288.15 K, m1 = 0.2997	999.911 ± 0.034 kg/m3 and 999.913 ± 0.034 kg/m3	1490 ± 0.75 m/s and 1489.9 ± 0.75 m/s
288.15 K, m1 = 0.4021	1000.23 ± 0.035 kg/m3	1497.8 ± 0.75 m/s
288.15 K, m1 = 0.5001	1000.54 ± 0.035 kg/m3 and 1000.55 ± 0.035 kg/m3	1505.2 ± 0.75 m/s
288.15 K, m1 = 0.6007	1000.88 ± 0.036 kg/m3	1512.6 ± 0.76 m/s
293.15 K, m1 = 0.1001	998.435 ± 0.034 kg/m3 and 998.438 ± 0.034 kg/m3 and 998.44 ± 0.034 kg/m3	1489.9 ± 0.74 m/s
293.15 K, m1 = 0.2006	998.688 ± 0.034 kg/m3 and 998.69 ± 0.034 kg/m3 and 998.693 ± 0.034 kg/m3	1497.4 ± 0.75 m/s and 1497.3 ± 0.75 m/s
293.15 K, m1 = 0.2997	998.956 ± 0.035 kg/m3 and 998.958 ± 0.035 kg/m3 and 998.96 ± 0.035 kg/m3	1504.5 ± 0.75 m/s
293.15 K, m1 = 0.4021	999.245 ± 0.035 kg/m3 and 999.25 ± 0.035 kg/m3 and 999.252 ± 0.035 kg/m3	1511.8 ± 0.75 m/s
293.15 K, m1 = 0.5001	999.536 ± 0.036 kg/m3 and 999.541 ± 0.036 kg/m3 and 999.543 ± 0.036 kg/m3	1518.5 ± 0.76 m/s
293.15 K, m1 = 0.6007	999.846 ± 0.036 kg/m3 and 999.849 ± 0.036 kg/m3 and 999.851 ± 0.036 kg/m3	1525.3 ± 0.76 m/s
298.15 K, m1 = 0.1001	997.263 ± 0.035 kg/m3 and 997.264 ± 0.035 kg/m3 and 997.261 ± 0.035 kg/m3	1503.7 ± 0.75 m/s
298.15 K, m1 = 0.2006	997.499 ± 0.035 kg/m3	1510.5 ± 0.75 m/s and 1510.6 ± 0.75 m/s
298.15 K, m1 = 0.2997	997.744 ± 0.035 kg/m3 and 997.745 ± 0.035 kg/m3 and 997.742 ± 0.035 kg/m3	1517.1 ± 0.75 m/s and 1517.2 ± 0.75 m/s
298.15 K, m1 = 0.4021	998.013 ± 0.036 kg/m3 and 998.015 ± 0.036 kg/m3	1523.8 ± 0.76 m/s and 1523.9 ± 0.76 m/s
298.15 K, m1 = 0.5001	998.28 ± 0.036 kg/m3 and 998.279 ± 0.036 kg/m3 and 998.282 ± 0.036 kg/m3	1530 ± 0.76 m/s and 1530.1 ± 0.76 m/s
298.15 K, m1 = 0.6007	998.56 ± 0.037 kg/m3 and 998.559 ± 0.037 kg/m3 and 998.562 ± 0.037 kg/m3	1536.2 ± 0.77 m/s and 1536.3 ± 0.77 m/s
303.15 K, m1 = 0.1001	995.849 ± 0.035 kg/m3 and 995.85 ± 0.035 kg/m3	1515.6 ± 0.75 m/s
303.15 K, m1 = 0.2006	996.066 ± 0.036 kg/m3 and 996.067 ± 0.036 kg/m3	1521.9 ± 0.75 m/s
303.15 K, m1 = 0.2997	996.293 ± 0.036 kg/m3 and 996.294 ± 0.036 kg/m3	1528 ± 0.76 m/s
303.15 K, m1 = 0.4021	996.538 ± 0.036 kg/m3 and 996.539 ± 0.036 kg/m3	1534.1 ± 0.76 m/s
303.15 K, m1 = 0.5001	996.781 ± 0.037 kg/m3	1539.9 ± 0.77 m/s and 1539.8 ± 0.77 m/s
303.15 K, m1 = 0.6007	997.037 ± 0.037 kg/m3 and 997.036 ± 0.037 kg/m3	1545.6 ± 0.77 m/s and 1545.5 ± 0.77 m/s
308.15 K, m1 = 0.1001	994.216 ± 0.036 kg/m3 and 994.215 ± 0.036 kg/m3	1525.8 ± 0.75 m/s
308.15 K, m1 = 0.2006	994.415 ± 0.037 kg/m3 and 994.416 ± 0.037 kg/m3	1531.6 ± 0.76 m/s and 1531.5 ± 0.76 m/s
308.15 K, m1 = 0.2997	994.624 ± 0.037 kg/m3 and 994.621 ± 0.037 kg/m3	1537.2 ± 0.76 m/s and 1537.1 ± 0.76 m/s
308.15 K, m1 = 0.4021	994.845 ± 0.037 kg/m3 and 994.847 ± 0.037 kg/m3	1542.8 ± 0.77 m/s
308.15 K, m1 = 0.5001	995.067 ± 0.038 kg/m3 and 995.065 ± 0.038 kg/m3 and 995.068 ± 0.038 kg/m3	1548 ± 0.77 m/s and 1548.1 ± 0.77 m/s
308.15 K, m1 = 0.6007	995.297 ± 0.038 kg/m3 and 995.296 ± 0.038 kg/m3 and 995.298 ± 0.038 kg/m3	1553.2 ± 0.77 m/s and 1553.1 ± 0.77 m/s
318.15 K, m1 = 0.1001	990.368 ± 0.038 kg/m3 and 990.367 ± 0.038 kg/m3	1541.5 ± 0.76 m/s and 1541.4 ± 0.76 m/s
318.15 K, m1 = 0.2006	990.531 ± 0.038 kg/m3 and 990.532 ± 0.038 kg/m3 and 990.533 ± 0.038 kg/m3	1546.4 ± 0.76 m/s and 1546.3 ± 0.76 m/s
318.15 K, m1 = 0.2997	990.701 ± 0.039 kg/m3 and 990.7 ± 0.039 kg/m3	1551 ± 0.77 m/s
318.15 K, m1 = 0.4021	990.883 ± 0.039 kg/m3 and 990.882 ± 0.039 kg/m3	1555.6 ± 0.77 m/s and 1555.7 ± 0.77 m/s
318.15 K, m1 = 0.5001	991.06 ± 0.039 kg/m3 and 991.057 ± 0.039 kg/m3 and 991.058 ± 0.039 kg/m3	1559.9 ± 0.77 m/s and 1560 ± 0.77 m/s
318.15 K, m1 = 0.6007	991.242 ± 0.04 kg/m3 and 991.241 ± 0.04 kg/m3	1564.2 ± 0.78 m/s and 1564.3 ± 0.78 m/s
